Tests used:
p70S6K = p70S6K (Homo sapiens, UniProt P23443); assay: Biochemical inhibition profile, p70S6K; details: read-out: p70S6K percent inhibition at 20 μM
MV4-11 = assay: cells; assay type: cell-based; details: Homo sapiens, MV4-11, read-out: Cell-Based Antiproliferation Assay IC50
[1] = test system: pERK T202Y204 in HUVEC (with BSA); assay: Cell-based target inhibition assay, HUVEC, VEGF, pERK with BSA; design: species or system human; details: Homo sapiens, read-out: Cell-Based Target Inhibition Assays IC50, pERK T202Y204 (with BSA)
EPHA8 = EPHA8 (Homo sapiens, UniProt P29322); assay: Biochemical inhibition profile, EPHA8
EPHA8, sequence (P29322 28-1005): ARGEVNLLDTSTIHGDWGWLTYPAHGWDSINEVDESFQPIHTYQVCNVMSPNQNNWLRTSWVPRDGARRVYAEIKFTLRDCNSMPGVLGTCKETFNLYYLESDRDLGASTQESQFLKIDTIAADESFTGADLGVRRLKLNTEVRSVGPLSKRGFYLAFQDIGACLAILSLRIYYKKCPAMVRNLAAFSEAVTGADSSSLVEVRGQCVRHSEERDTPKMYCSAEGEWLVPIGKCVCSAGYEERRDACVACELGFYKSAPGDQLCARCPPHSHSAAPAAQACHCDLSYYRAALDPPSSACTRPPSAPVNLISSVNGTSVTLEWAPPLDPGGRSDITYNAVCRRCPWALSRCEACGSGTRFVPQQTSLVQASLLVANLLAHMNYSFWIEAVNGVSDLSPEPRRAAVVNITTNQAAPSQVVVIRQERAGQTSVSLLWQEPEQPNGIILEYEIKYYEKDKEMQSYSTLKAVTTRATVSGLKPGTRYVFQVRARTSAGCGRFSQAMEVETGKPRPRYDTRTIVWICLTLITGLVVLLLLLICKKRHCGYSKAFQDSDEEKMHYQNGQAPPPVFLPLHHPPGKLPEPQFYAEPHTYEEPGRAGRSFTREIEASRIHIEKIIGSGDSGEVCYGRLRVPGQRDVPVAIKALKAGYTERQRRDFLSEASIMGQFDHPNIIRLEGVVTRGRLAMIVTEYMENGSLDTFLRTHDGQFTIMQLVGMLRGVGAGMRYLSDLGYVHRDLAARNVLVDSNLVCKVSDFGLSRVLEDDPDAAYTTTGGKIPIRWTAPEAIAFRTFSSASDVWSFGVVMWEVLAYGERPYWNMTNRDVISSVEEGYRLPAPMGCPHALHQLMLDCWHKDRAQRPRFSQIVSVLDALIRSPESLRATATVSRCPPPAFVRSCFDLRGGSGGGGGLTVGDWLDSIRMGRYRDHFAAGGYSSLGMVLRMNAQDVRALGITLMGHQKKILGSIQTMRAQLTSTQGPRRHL

pERK T202Y204 in HUVEC = assay: Cell-based target inhibition assay, HUVEC, VEGF, pERK; design: species or system human; details: Homo sapiens, read-out: Cell-Based Target Inhibition Assays IC50, pERK T202Y204
pFLT3 = details: Western blotting; 200 mg; 10/13 patients; cited from earlier work
RAF = assay: Biochemical inhibition profile, RAF; design: species or system Human; details: read-out: Biochemical Inhibition Profile IC50, RAF

p70S6K, sequence (P23443 whole entry): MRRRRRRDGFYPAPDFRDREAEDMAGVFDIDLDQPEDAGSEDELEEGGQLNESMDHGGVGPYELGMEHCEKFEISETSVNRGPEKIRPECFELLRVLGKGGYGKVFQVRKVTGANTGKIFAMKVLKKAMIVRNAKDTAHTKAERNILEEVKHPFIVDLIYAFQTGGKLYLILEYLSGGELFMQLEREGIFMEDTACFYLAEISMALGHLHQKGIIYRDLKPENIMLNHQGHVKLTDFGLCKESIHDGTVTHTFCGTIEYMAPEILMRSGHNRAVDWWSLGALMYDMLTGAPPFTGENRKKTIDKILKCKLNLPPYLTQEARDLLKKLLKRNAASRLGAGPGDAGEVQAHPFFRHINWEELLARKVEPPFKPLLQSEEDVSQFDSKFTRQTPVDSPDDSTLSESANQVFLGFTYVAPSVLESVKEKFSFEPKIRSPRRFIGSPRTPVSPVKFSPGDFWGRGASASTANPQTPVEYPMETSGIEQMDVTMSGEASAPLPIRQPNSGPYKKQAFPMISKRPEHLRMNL

Row | inhibition at 20 µM (p70S6K) | IC50 (MV4-11) | IC50 (EPHA8) | IC50 (RAF) | Structure (SMILES) | IC50 [1] | IC50 (pERK T202Y204 in HUVEC) | Patients with reduction of pFLT3 (pFLT3)
1 | 75.6% | 11.7 nM | – | – | CNC(=O)c1cc(Oc2ccc(NC(=O)Nc3ccc(Cl)c(C(F)(F)F)c3)cc2)ccn1 [Sorafenib] | 38 nM | – | –
2 | 92.3% | 19.6 nM | > 20000 nM | > 20000 nM | CCN(CC)CCNC(=O)c1c(C)[nH]c(/C=C2\C(=O)Nc3ccc(F)cc32)c1C [Sunitinib, reference compound] | – | 28.7 nM | 77%

From paper PMC3101112 (Cancer Management and Research, 2011)
